What was measured:
[1] = previously shown; cited from earlier work
Description: This could be related to the fact that arginine has a higher affinity for sulfated GAGs than lysine.

[2] = previously shown; cited from earlier work; remark: listed apart in the source
Description: We recently reported that upon binding to sulfated GAGs, PACAP38 undergoes a random coil-to-α-helix conformational conversion. […] Thus, we evaluated if the lower efficacy of cellular uptake of representative peptides of the secretin/glucagon/GHRH superfamily and of calcitonin could not be ascribed to the incapacity of ...

[3] = test system: CHO K1 cells; experiment: Cellular uptake of fluorescently labelled peptides by flow cytometry, CHO K1 cells; format: cell-based, Chinese hamster; conditions: 1 µM fluorescently-labelled (FITC-Ahx N-terminal) peptide, 1 h at 37 °C, 1% FBS Ham's F12, heparin wash and trypsin, at least 3 experiments
Method: Chinese hamster ovary cells K1 (CHO K1; obtained from ATCC, Manassas, VA, USA) and xylosyltransferase deficient cells [18] (CHO pgs-A-745; obtained from ATCC) were maintained in Ham’s F12 medium supplemented with 10% foetal bovine serum (FBS), 2 mM L-glutamine and antibiotic (10,000 UI/mL penicillin, and 10,000 UI/mL streptomycin). Cells were maintained as a monolayer at 37 °C in a humidified atmosphere of 5% CO2 and 95% air and passaged by trypsinization when the cells reached 70%–80% confluence.

[4] = test system: CHO pgs-A-745 cells; experiment: Cellular uptake of fluorescently labelled peptides by flow cytometry, GAGs-deficient CHO pgs-A-745 cells; format: cell-based, Chinese hamster; conditions: 1 µM fluorescently labelled peptide, 1 h at 37 °C
Method: Figure 1 Cellular uptake of cationic peptide hormones and TAT peptide. […] Data represent the relative mean fluorescence intensity (± S.E.M.) of gated cells from at least 3 individual experiments and results are expressed as a percentage of the median fluorescence for 1 μM PACAP38 in CHO K1 cells. Cells were incubated for 1 h at 37 °C in 5% CO2 with fluorescently labelled peptides, washed twice in HBSS, treated with 100 μg/mL heparin for 5 min, detached by trypsin treatment, washed by centrifugation and resuspended in ice-cold sorting buffer before flow cytometry analysis.
Chinese hamster ovary cells K1 (CHO K1; obtained from ATCC, Manassas, VA, USA) and xylosyltransferase deficient cells (CHO pgs-A-745; obtained from ATCC) were maintained in Ham’s F12 medium supplemented with 10% foetal bovine serum (FBS), 2 mM L-glutamine and antibiotic (10,000 UI/mL penicillin, and 10,000 UI/mL streptomycin). […]
For cellular uptake measurement, CHO K1 and CHO pgs-A-745 were seeded in 12-well plates at a density of 30,000 cells/well for 48 h to approximately 75% confluence. […] To confirm that the fluorescence measured by flow cytometry was not associated to non-specific binding of the FITC-peptides at the cell surface, we performed the analysis after treatment with the fluorescent quencher trypan blue. […]

[5] = Heparin affinity chromatography (HiTrap Heparin HP sepharose column, NaCl gradient); format: binding, porcine; conditions: 20 mM phosphate pH 7.4, NaCl gradient
Method: (A) Chromatograms of PACAP38 elution with increasing NaCl concentration on a sepharose heparin column connected to a FPLC Aktapure system.
The relative binding affinity of the peptides for sulfated GAGs was evaluated using a 1 mL HiTrap Heparin HP column packed with sepharose and immobilized heparin from porcine intestinal mucosa (GE Healthcare, Baie-d'Urfé, QC, Canada). The column was connected to a FPLC Aktapure system (GE Healthcare) and equilibrated with phosphate buffer (20 mM, pH 7.4) prior to injection. Five hundred microliters of 0.5 mg/mL peptide solutions were injected at a flow rate of 0.5 mL/min. After injection, the elution consisted of an isocratic step of 5 mL phosphate buffer (20 mM, pH 7.4) followed by a gradient from 0 to 2 M NaCl in phosphate buffer (pH 7.4). Peptide elution was monitored using absorbance at 230 nm.

[6] = Heparin clustering measured by turbidity at 400 nm, heparin-into-peptide titration; format: physicochemical; conditions: 1.25 µL aliquots of 100 µM heparin into 1 mL 50 µM peptide, 20 mM phosphate, 100 mM NaCl, pH 7.4
Method: Each peak corresponds to the injection of 1.25 μL of a 100 μM heparin solution (20 mM phosphate, 100 mM NaCl, pH 7.4) into a 1 mL 50 μM peptide solution (20 mM phosphate, 100 mM NaCl, pH 7.4).
The formation of macromolecular GAG-peptide clusters was monitored by measuring the light scattering at 400 nm, as previously described [27, 28], using a 100 Bio Cary UV-visible spectrophotometer (Varian, Malton, ON, Canada). Briefly, for the heparin-into-peptide titration, a 1 cm length quartz cuvette was filled with 1 mL of a 50 μM peptide solution (20 mM phosphate buffer, 100 mM·NaCl, pH 7.4) and 1.25 μL aliquots of a 100 μM heparin solution (20 mM phosphate buffer, 100 mM·NaCl, pH 7.4) were successively added. The solution was gently mixed by vortex and the turbidity at 400 nm was immediately measured. For the peptide-into-heparin titration, a 1 cm length quartz cuvette was filled with 1 mL of a 10 μM heparin solution (20 mM phosphate buffer, 100 mM·NaCl, pH 7.4) and 12.5 μL aliquots of a 200 μM peptide solution (20 mM phosphate buffer, 100 mM·NaCl, pH 7.4) were successively added. The solution was gently mixed by vortex and the turbidity at 400 nm was immediately measured. Data was expressed as solution turbidity at 400 nm as function of peptide/heparin or heparin/peptide molar ratio.

Row | Sequence | NaCl concentration at which TAT is eluted from heparin column [1] | Secondary conformation of TAT upon binding to heparin [2] | Cellular uptake, fold lower compared to PACAP38 [3] | Extent of internalization in CHO pgs-A-745 versus CHO K1 cells (in words) [4] | Relative binding to heparin column (in words) [5] | Turbidity at 400 nm on titration of heparin into peptide (in words) [6]
1 | GRKKRRQRRRPPQ [TAT(48–60), cationic peptide derived from the HIV-1 protein TAT, the control CPP used in this study] | around 1.8 M | adopts an α-helical conformation | – | – | – | –
2 | CGNLSTCMLGTYTQDFNKFHTFPQTAIGVGAP [Calcitonin] | – | – | 5- to 10 fold | rather similar | bind weakly to the heparin column | absence of turbidity
